Data published in the NIST ThermoML archive (doi:10.1021/je600573w).

Experiments:
[1] = molar heat capacity at constant pressure; settings: 101.33 kPa, Liquid, Small sample (50 mg) DSC
[2] = 101.33 kPa, Liquid, Vibrating tube method

Clc1ccccc1Br [1-bromo-2-chlorobenzene]
Settings | mass density [kg/m3] | molar heat capacity at constant pressure [J/K/mol]
[1], 283.15 K | – | 172.25
[1], 285.15 K | – | 172.59
[1], 287.15 K | – | 172.94
[1], 289.15 K | – | 173.29
[1], 291.15 K | – | 173.65
[1], 293.15 K | – | 174.02
[1], 295.15 K | – | 174.39
[1], 297.15 K | – | 174.78
[1], 299.15 K | – | 175.17
[1], 301.15 K | – | 175.56
[1], 303.15 K | – | 175.96
[1], 305.15 K | – | 176.36
[1], 307.15 K | – | 176.77
[1], 309.15 K | – | 177.19
[1], 311.15 K | – | 177.61
[1], 313.15 K | – | 178.03
[1], 315.15 K | – | 178.45
[1], 317.15 K | – | 178.88
[1], 319.15 K | – | 179.31
[1], 321.15 K | – | 179.74
[1], 323.15 K | – | 180.17
[1], 325.15 K | – | 180.6
[1], 327.15 K | – | 181.03
[1], 329.15 K | – | 181.47
[1], 331.15 K | – | 181.9
[1], 333.15 K | – | 182.33
[1], 335.15 K | – | 182.77
[1], 337.15 K | – | 183.2
[1], 339.15 K | – | 183.62
[1], 341.15 K | – | 184.05
[1], 343.15 K | – | 184.47
[1], 345.15 K | – | 184.89
[1], 347.15 K | – | 185.31
[1], 349.15 K | – | 185.72
[1], 351.15 K | – | 186.13
[1], 353.15 K | – | 186.53
[2], 288.15 K | 1659.67 | –
[2], 298.15 K | 1646.32 | –
[2], 308.15 K | 1633.01 | –
[2], 318.15 K | 1619.69 | –
[2], 328.15 K | 1606.36 | –
[2], 338.15 K | 1593.03 | –

Clc1cccc(Br)c1 [1-bromo-3-chlorobenzene]
Settings | mass density [kg/m3] | molar heat capacity at constant pressure [J/K/mol]
[1], 283.15 K | – | 171.14
[1], 285.15 K | – | 171.49
[1], 287.15 K | – | 171.84
[1], 289.15 K | – | 172.21
[1], 291.15 K | – | 172.59
[1], 293.15 K | – | 172.97
[1], 295.15 K | – | 173.36
[1], 297.15 K | – | 173.75
[1], 299.15 K | – | 174.15
[1], 301.15 K | – | 174.56
[1], 303.15 K | – | 174.98
[1], 305.15 K | – | 175.4
[1], 307.15 K | – | 175.82
[1], 309.15 K | – | 176.25
[1], 311.15 K | – | 176.68
[1], 313.15 K | – | 177.12
[1], 315.15 K | – | 177.56
[1], 317.15 K | – | 178
[1], 319.15 K | – | 178.44
[1], 321.15 K | – | 178.89
[1], 323.15 K | – | 179.33
[1], 325.15 K | – | 179.78
[1], 327.15 K | – | 180.23
[1], 329.15 K | – | 180.68
[1], 331.15 K | – | 181.13
[1], 333.15 K | – | 181.58
[1], 335.15 K | – | 182.03
[1], 337.15 K | – | 182.47
[1], 339.15 K | – | 182.92
[1], 341.15 K | – | 183.36
[1], 343.15 K | – | 183.8
[1], 345.15 K | – | 184.24
[1], 347.15 K | – | 184.67
[1], 349.15 K | – | 185.1
[1], 351.15 K | – | 185.52
[1], 353.15 K | – | 185.94
[2], 288.15 K | 1638.44 | –
[2], 298.15 K | 1624.97 | –
[2], 308.15 K | 1611.51 | –
[2], 318.15 K | 1598.05 | –
[2], 328.15 K | 1584.56 | –
[2], 338.15 K | 1571.05 | –

Brc1ccccc1 [bromobenzene]
Settings | mass density [kg/m3] | molar heat capacity at constant pressure [J/K/mol]
[1], 283.15 K | – | 151.63
[1], 285.15 K | – | 151.99
[1], 287.15 K | – | 152.37
[1], 289.15 K | – | 152.75
[1], 291.15 K | – | 153.14
[1], 293.15 K | – | 153.54
[1], 295.15 K | – | 153.94
[1], 297.15 K | – | 154.35
[1], 299.15 K | – | 154.77
[1], 301.15 K | – | 155.19
[1], 303.15 K | – | 155.62
[1], 305.15 K | – | 156.05
[1], 307.15 K | – | 156.49
[1], 309.15 K | – | 156.93
[1], 311.15 K | – | 157.38
[1], 313.15 K | – | 157.83
[1], 315.15 K | – | 158.28
[1], 317.15 K | – | 158.74
[1], 319.15 K | – | 159.2
[1], 321.15 K | – | 159.66
[1], 323.15 K | – | 160.13
[1], 325.15 K | – | 160.6
[1], 327.15 K | – | 161.06
[1], 329.15 K | – | 161.53
[1], 331.15 K | – | 162
[1], 333.15 K | – | 162.48
[1], 335.15 K | – | 162.95
[1], 337.15 K | – | 163.42
[1], 339.15 K | – | 163.89
[1], 341.15 K | – | 164.36
[1], 343.15 K | – | 164.83
[1], 345.15 K | – | 165.3
[1], 347.15 K | – | 165.76
[1], 349.15 K | – | 166.23
[1], 351.15 K | – | 166.69
[1], 353.15 K | – | 167.15
[2], 288.15 K | 1501.95 | –
[2], 298.15 K | 1488.45 | –
[2], 308.15 K | 1474.94 | –
[2], 318.15 K | 1461.39 | –
[2], 328.15 K | 1447.8 | –
[2], 338.15 K | 1434.15 | –

Clc1ccccc1 [chlorobenzene]
Settings | mass density [kg/m3] | molar heat capacity at constant pressure [J/K/mol]
[1], 283.15 K | – | 147.73
[1], 285.15 K | – | 148.14
[1], 287.15 K | – | 148.56
[1], 289.15 K | – | 148.99
[1], 291.15 K | – | 149.41
[1], 293.15 K | – | 149.85
[1], 295.15 K | – | 150.29
[1], 297.15 K | – | 150.73
[1], 299.15 K | – | 151.18
[1], 301.15 K | – | 151.64
[1], 303.15 K | – | 152.1
[1], 305.15 K | – | 152.56
[1], 307.15 K | – | 153.03
[1], 309.15 K | – | 153.5
[1], 311.15 K | – | 153.97
[1], 313.15 K | – | 154.45
[1], 315.15 K | – | 154.93
[1], 317.15 K | – | 155.41
[1], 319.15 K | – | 155.9
[1], 321.15 K | – | 156.39
[1], 323.15 K | – | 156.88
[1], 325.15 K | – | 157.37
[1], 327.15 K | – | 157.86
[1], 329.15 K | – | 158.36
[1], 331.15 K | – | 158.86
[1], 333.15 K | – | 159.35
[1], 335.15 K | – | 159.85
[1], 337.15 K | – | 160.35
[1], 339.15 K | – | 160.85
[1], 341.15 K | – | 161.35
[1], 343.15 K | – | 161.85
[1], 345.15 K | – | 162.35
[1], 347.15 K | – | 162.85
[1], 349.15 K | – | 163.34
[1], 351.15 K | – | 163.84
[1], 353.15 K | – | 164.34
[2], 288.15 K | 1111.9 | –
[2], 298.15 K | 1101.14 | –
[2], 308.15 K | 1090.34 | –
[2], 318.15 K | 1079.48 | –
[2], 328.15 K | 1068.57 | –
[2], 338.15 K | 1057.58 | –
